Test results from BindingDB's records for patent US8933095 (Pfizer, 2015).

Biological target: Kynurenine/alpha-aminoadipate aminotransferase, mitochondrial (Homo sapiens, UniProt Q8N5Z0)
Test: Inhibition Spectra Assay
Conditions: 37 °C
Description: Formation of kynurenic acid (KYNA) is indirectly assessed by a decrease in light absorbance at 370 nm (OD370) as the L-kynurenine (KYN) substrate is converted by the human KAT II (hKAT II) enzyme into KYNA. An inhibitor would therefore inhibit the decrease in OD370.The protocol was performed by placing the following reagents into a Costar 384 well black plate (30 uL total assay volume/well): 10 uL of 3x concentrated compound; 10 uL of 3x concentrated substrate mix (BGG (Sigma G-5009); 3 mM L-Kynurenine in 150 mM Tris Acetate (Sigma K3750); 3 mM alpha-ketoglutaric acid in 150 mM Tris Acetate (Sigma K2010); and 210 uM pyridoxal 5-phosphate (PLP) in 150 mM Tris Acetate (Sigma 9255)); and 10 uL of 3x concentrated enzyme (15 nM enzyme in 150 mM Tris Acetate with 0.3% bovine serum).Plates were sealed and incubated at 37 C. for 15-20 h before reading OD370 on a SpectraMax Plus plate reader.

Chain of Kynurenine/alpha-aminoadipate aminotransferase, mitochondrial (Q8N5Z0 whole entry): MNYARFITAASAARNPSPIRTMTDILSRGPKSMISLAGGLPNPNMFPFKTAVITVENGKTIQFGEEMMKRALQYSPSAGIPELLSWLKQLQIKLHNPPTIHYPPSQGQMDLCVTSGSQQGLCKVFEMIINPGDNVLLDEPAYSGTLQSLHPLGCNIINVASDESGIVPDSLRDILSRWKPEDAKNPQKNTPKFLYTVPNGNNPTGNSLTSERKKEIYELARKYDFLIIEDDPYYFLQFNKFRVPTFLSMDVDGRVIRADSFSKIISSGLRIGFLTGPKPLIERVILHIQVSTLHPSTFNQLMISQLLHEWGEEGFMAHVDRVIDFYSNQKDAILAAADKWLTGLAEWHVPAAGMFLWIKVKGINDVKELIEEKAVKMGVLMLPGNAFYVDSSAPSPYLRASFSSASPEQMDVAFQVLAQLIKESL

Cn1nc2c(c1Cc1ccccc1)C[C@@H](N)C(=O)N2O [US8933095, 2]
IC50: 63.7 nM
